# In US8389573B2, “Glycyrrhetinic acid derivatives” (Wellington Laboratories Inc., priority 2006, dated 2013):
# Assays:
# [1] = tested on: SW480 cells; assay: Western blot analysis in SW480 cells; type: cell-based, human; conditions: SW480, treatment for 3 days
# Method: SW-480 and HT-29 (3×10^5) cells were seeded in six-well plates in DMEM/Ham's F-12 media containing 2.5% charcoal-stripped FBS for 24 h and then treated with either the vehicle (DMSO) or the indicated compounds. Whole-cell lysates were obtained using high-salt buffer [50 mM HEPES, 500 mM NaCl, 1.5 mM MgCl2, 1 mM EGTA, 10% glycerol, and 1% Triton X-100, pH 7.5, and 5 μl/ml Protease Inhibitor Cocktail (Sigma-Aldrich)]. Protein samples were incubated at 100° C. for 2 min, separated on 10% SDS-PAGE at 120 V for 3 to 4 h in 1× running buffer (25 mM Tris-base, 192 mM glycine, and 0.1% SDS, pH 8.3), and transferred to polyvinylidene difluoride membrane (PVDF; Bio-Rad, Hercules, Calif.) at […] for 16 h at 4° C. in 1× transfer buffer (48 mM Tris-HCl, 39 mM glycine, and 0.025% SDS). The PVDF membrane was blocked in 5% TBST-Blotto (10 mM Tris-HCl, 150 mM NaCl, pH 8.0, 0.05% Triton X-100, and 5% nonfat dry milk) with gentle shaking for 30 min and was incubated in fresh 5% TBST-Blotto with 1:1000 (for caveolin-1, p27, p21, cyclin D1, Grp78), 1:500 (for KLF4, NAG-1), 1:250 (for PARP), and 1:5000 (for β-actin) primary antibody overnight with gentle shaking at 4° C. After washing with TBST for 10 min, the PVDF membrane was incubated with secondary antibody (1:5000) in 5% TBST-Blotto for 90 min. The membrane was washed with TBST for 10 min, incubated with 10 ml of chemiluminescence substrate (PerkinElmer) for 1.0 min, and exposed to Kodak X-OMAT AR autoradiography film (Eastman Kodak, Rochester, N.Y.).
# [2] = tested on: PPARγ; conditions: SW480 cells, previous studies (22); cited from earlier work
# [3] = target: T1, PPARγ-coactivator interactions (Homo sapiens, UniProt P37231); conditions: SW480 cells, reference (22); cited from earlier work
# T1 construct: expressed in transfected cells; host or cells: SW480 cells, transient transfection (LipofectAMINE)
# T1 sequence (P37231 238-503 limits assumed): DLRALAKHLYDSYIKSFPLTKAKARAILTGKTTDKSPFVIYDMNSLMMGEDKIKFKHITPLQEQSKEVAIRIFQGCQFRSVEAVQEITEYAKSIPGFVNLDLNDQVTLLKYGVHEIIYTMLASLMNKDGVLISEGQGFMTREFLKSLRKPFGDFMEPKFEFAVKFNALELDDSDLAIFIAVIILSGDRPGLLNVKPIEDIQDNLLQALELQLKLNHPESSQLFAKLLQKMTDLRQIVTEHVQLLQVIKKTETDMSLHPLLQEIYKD
# [4] = tested on: LNCaP cells; assay: Western blot analysis and DNA fragmentation assay in LNCaP cells; type: cell-based, human; conditions: 2.5 μM β-CDODA-Me, 24 hr
# Method: Cell Proliferation and DNA Fragmentation Assays: LNCaP prostate cancer cells (2×10^4 per well) were added to 12-well plates and allowed to attach for 24 hr. The medium was then changed to DMEM/Ham's F-12 media containing 2.5% charcoal-stripped FBS, and either vehicle (DMSO) or the indicated C-DIMs were added. Fresh medium and indicated compounds were added every 48 hr, and cells were then trypsinized and counted after 2, 4, and 6 days using a Coulter Z1 cell counter (Beckman Coulter, Fullerton, Calif.). Each experiment was done in triplicate, and results are expressed as means±S.E. for each set of three experiments. The DNA fragmentation assay was performed using a BioVision Apoptotic DNA ladder extraction kit (BioVision, Mountain View, Calif.) according to the manufacturer's protocol.
# Western Blot Analysis: Cells were seeded in DMEM:Ham's F-12 media containing 2.5% charcoal-stripped FBS for 24 hr and then treated with either the vehicle (DMSO) or the indicated compounds. Cells were collected by scraping in 150 μl high salt lysis buffer (50 mM HEPES, 0.5 M NaCl, 1.5 mM MgCl2, 1 mM EGTA, 10% (v/v) glycerol, 1% (v/v) Triton-X-100 and 5 μL/ml of Protease Inhibitor Cocktail (Sigma). The lysates were incubated on ice for 1 hr with intermittent vortexing followed by centrifugation at 20,000 g for 10 min at 4° C. Before electrophoresis, samples were boiled for 3 min at 100° C.; the amount of protein was determined and 60 μg protein applied per lane. Samples were subjected to SDS-PAGE on 10% gel at 120 V for 3 to 4 hr. Proteins were transferred on to polyvinylidene difluoride membrane (PVDF; Bio-Rad, Hercules, Calif.) at 0.9 amp for 90 min at 4° C. in 1× transfer buffer (48 mM Tris-HCl, 39 mM glycine, and 0.025% SDS). The membranes were blocked for 30 min with 5% TBST-Blotto (10 mM Tris-HCl, 150 mM NaCl (pH 8.0), 0.05% Triton X-100 and 5% non-fat dry milk) and incubated in fresh 5% TBST-Blotto with primary antibody overnight with gentle shaking at 4° C. After washing with TBST for 10 min, the PVDF membrane was incubated with secondary antibody (1:5000) in 5% TBST-Blotto for 2-3 hr. The membrane was washed with TBST for 10 min and incubated with 10 ml of chemiluminescence substrate (PerkinElmer Life Sciences) for 1.0 min and exposed to ImageTeK-H medical imaging film (Eastman American X-ray Supply, Inc.).
# [5] = tested on: p21 promoter; assay: p21 promoter construct luciferase assay in LNCaP cells; type: cell-based; conditions: 10 μM PD98059
# [6] = tested on: Sp1, Sp3 and Sp4 in liver; assay: Sp protein expression in non-target tissue (liver) of treated mice; type: in vivo; conditions: preliminary results
# Source text: (i) Animal treatment: Male athymic nude mice are obtained from commercial sources and their use approved by the Institutional Animal Care and Use Committee. Ten animals are used for each treatment group and based on consultation with biostatisticians, this number is sufficient for determining statistical significance between treatment groups (41, 42). At least one AR-positive (LNCaP/22Rv1) and AR-negative (PC3/DU145) prostate cancer cell line is used in the xenograft study. Cells are harvested by exposure to trypsin and resuspended in serum-free Hanks' balanced salt solution (HBSS). […] In addition, Western blot analysis of Sp proteins, proapoptotic and antiangiogenic responses is determined on whole cell lysates from compound- and corn oil (vehicle)-treated tumors. Where possible (depending on the amount of protein extracted), the effects of the compound versus corn oil on expression of these proteins is quantitated and statistically analyzed. In addition, the effects of the compound on Sp protein expression in non-target tissue (e.g. liver and kidney) is determined. […] Immunostaining for Sp1, Sp3 and Sp4 and for angiogenic (VEGF, VEGFR1 and VEGFR2) and apoptotic (cleaved PARP, activated caspase 3, survivin and TUNEL) proteins/responses are determined as described above.
smiles,measurement,setting,value
COC(=O)[C@]12CCC(C)(C)C[C@H]1[C@H]1C(=O)C=C3[C@@]4(C)C=C(C#N)C(=O)C(C)(C)[C@@H]4CC[C@@]3(C)[C@]1(C)CC2 [CDDO-Me],caveolin-1 protein expression,[1],induce caveolin-1 protein
same,luciferase activity with GAL4-PPARγ/GAL4-Luc,[2],induced luciferase activity
same,"interactions between VP-PPARγ and GAL4-coactivator/corepressor chimeras (SRC1, SRC2, SRC3, PGC1, TRAP220, CARM1, SMRT)",[3],induced interactions
"COc1cccc(-c2cc(=O)c3ccccc3o2)c1N [PD98059, reference compound]",effect of kinase inhibitor on induction of ATF-3 by β-CDODA-Me,[4],blocked induction
same,effect of kinase inhibitor on induction of NAG-1 by β-CDODA-Me,[4],inhibited induction
same,effect on β-CDODA-Me downregulation of cyclin D1 and induction of p21,[4],partially blocked
same,effect on β-CDODA-Me-induced p21-luc(101) luciferase activity,[5],inhibited this response
"COC(=O)[C@@]1(C)CCC2(C)CC[C@]3(C)C(=CC(=O)[C@@H]4C5(C)C=C(I)C(=O)C(C)(C)[C@@H]5CCC43C)C2C1 (stereo partly drawn) [β-IDODA-Me, Methyl 2-iodo-3,11-dioxo-18β-oleana-1,12-diene-30-oate]","Sp1, Sp3 and Sp4 expression in liver",[6],unaffected
